# Assay results from US20260015350A1, “AZAQUINAZOLINE PAN-KRAS INHIBITORS” (Mirati Therapeutics, Inc., priority 2022, published 2026).
# Tests used:
# KRas^WT = target: T1, KRas^WT (Homo sapiens, UniProt P01116); assay: KRas binding assay (TR-FRET tracer displacement), KRas WT; conditions: TR-FRET tracer displacement, KRas WT
# T1 construct: Biotinylated KRas (corresponding to amino acids 1-169, produced at Accelegan Inc.); biotin (biotinylated); purchased Accelegan Inc
# KRas^G12A = target: T2, KRas^G12A (Homo sapiens, UniProt P01116, G12A); assay: KRas binding assay (TR-FRET tracer displacement), KRas G12A; conditions: TR-FRET tracer displacement, KRas G12A
# T2 construct: Biotinylated KRas (corresponding to amino acids 1-169, produced at Accelegan Inc.); biotin (biotinylated); purchased Accelegan Inc
# T2 sequence (P01116 1-169 isoform P01116-2 G12A): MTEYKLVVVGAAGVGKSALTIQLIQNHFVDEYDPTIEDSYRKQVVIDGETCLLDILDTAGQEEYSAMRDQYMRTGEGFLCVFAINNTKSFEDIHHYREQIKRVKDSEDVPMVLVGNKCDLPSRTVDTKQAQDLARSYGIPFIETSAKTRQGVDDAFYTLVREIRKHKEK
# KRas^G12C = target: T3, KRas^G12C (Homo sapiens, UniProt P01116, G12C); assay: KRas binding assay (TR-FRET tracer displacement), KRas G12C; conditions: TR-FRET tracer displacement, KRas G12C
# T3 construct: Biotinylated KRas (corresponding to amino acids 1-169, produced at Accelegan Inc.); biotin (biotinylated); purchased Accelegan Inc
# T3 sequence (P01116 1-169 isoform P01116-2 G12C): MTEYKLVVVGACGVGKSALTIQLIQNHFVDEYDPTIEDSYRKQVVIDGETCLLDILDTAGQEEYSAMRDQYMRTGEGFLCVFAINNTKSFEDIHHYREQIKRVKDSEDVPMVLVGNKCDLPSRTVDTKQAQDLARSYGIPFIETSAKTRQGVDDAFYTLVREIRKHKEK
# KRas^G12D = target: T4, KRas^G12D (Homo sapiens, UniProt P01116, G12D); assay: KRas binding assay (TR-FRET tracer displacement), KRas G12D
# T4 construct: Biotinylated KRas (corresponding to amino acids 1-169, produced at Accelegan Inc.); biotin (biotinylated); purchased Accelegan Inc
# T4 sequence (P01116 1-169 isoform P01116-2 G12D): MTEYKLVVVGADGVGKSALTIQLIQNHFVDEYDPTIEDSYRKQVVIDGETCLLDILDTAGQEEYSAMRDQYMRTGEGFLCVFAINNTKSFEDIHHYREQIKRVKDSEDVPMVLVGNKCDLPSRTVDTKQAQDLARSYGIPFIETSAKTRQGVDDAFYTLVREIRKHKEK
# KRas^G12R = target: T5, KRas^G12R (Homo sapiens, UniProt P01116, G12R); assay: KRas binding assay (TR-FRET tracer displacement), KRas G12R
# T5 construct: Biotinylated KRas (corresponding to amino acids 1-169, produced at Accelegan Inc.); biotin (biotinylated); purchased Accelegan Inc
# T5 sequence (P01116 1-169 isoform P01116-2 G12R): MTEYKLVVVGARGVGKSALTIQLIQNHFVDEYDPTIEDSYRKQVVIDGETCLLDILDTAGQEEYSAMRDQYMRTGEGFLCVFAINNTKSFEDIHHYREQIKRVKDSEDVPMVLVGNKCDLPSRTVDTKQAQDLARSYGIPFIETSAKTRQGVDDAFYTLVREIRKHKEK
# KRas^G12S = target: T6, KRas^G12S (Homo sapiens, UniProt P01116, G12S); assay: KRas binding assay (TR-FRET tracer displacement), KRas G12S; conditions: TR-FRET tracer displacement, KRas G12S
# T6 construct: Biotinylated KRas (corresponding to amino acids 1-169, produced at Accelegan Inc.); biotin (biotinylated); purchased Accelegan Inc
# T6 sequence (P01116 1-169 isoform P01116-2 G12S): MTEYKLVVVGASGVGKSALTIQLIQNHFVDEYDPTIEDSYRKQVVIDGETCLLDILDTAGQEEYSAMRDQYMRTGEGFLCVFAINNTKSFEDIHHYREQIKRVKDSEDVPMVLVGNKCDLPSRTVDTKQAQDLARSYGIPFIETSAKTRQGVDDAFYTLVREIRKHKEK
# KRas^G12V = target: T7, KRas^G12V (Homo sapiens, UniProt P01116, G12V); assay: KRas binding assay (TR-FRET tracer displacement), KRas G12V
# T7 construct: Biotinylated KRas (corresponding to amino acids 1-169, produced at Accelegan Inc.); biotin (biotinylated); purchased Accelegan Inc
# T7 sequence (P01116 1-169 isoform P01116-2 G12V): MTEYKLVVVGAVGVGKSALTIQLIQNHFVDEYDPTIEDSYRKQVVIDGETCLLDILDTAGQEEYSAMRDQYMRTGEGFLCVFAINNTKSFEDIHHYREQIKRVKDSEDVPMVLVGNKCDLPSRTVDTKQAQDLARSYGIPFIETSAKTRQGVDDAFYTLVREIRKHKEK
# KRas^G13D = target: T8, KRas^G13D (Homo sapiens, UniProt P01116, G13D); assay: KRas binding assay (TR-FRET tracer displacement), KRas G13D; conditions: TR-FRET tracer displacement, KRas G13D
# T8 construct: Biotinylated KRas (corresponding to amino acids 1-169, produced at Accelegan Inc.); biotin (biotinylated); purchased Accelegan Inc
# T8 sequence (P01116 1-169 isoform P01116-2 G13D): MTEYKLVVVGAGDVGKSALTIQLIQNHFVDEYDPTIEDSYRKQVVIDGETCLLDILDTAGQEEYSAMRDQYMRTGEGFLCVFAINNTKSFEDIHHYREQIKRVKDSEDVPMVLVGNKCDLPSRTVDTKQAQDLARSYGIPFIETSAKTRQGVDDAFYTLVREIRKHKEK
# KRas^Q61H = target: T9, KRas^Q61H (Homo sapiens, UniProt P01116, Q61H); assay: KRas binding assay (TR-FRET tracer displacement), KRas Q61H; conditions: TR-FRET tracer displacement, KRas Q61H
# T9 construct: Biotinylated KRas (corresponding to amino acids 1-169, produced at Accelegan Inc.); biotin (biotinylated); purchased Accelegan Inc
# T9 sequence (P01116 1-169 isoform P01116-2 Q61H): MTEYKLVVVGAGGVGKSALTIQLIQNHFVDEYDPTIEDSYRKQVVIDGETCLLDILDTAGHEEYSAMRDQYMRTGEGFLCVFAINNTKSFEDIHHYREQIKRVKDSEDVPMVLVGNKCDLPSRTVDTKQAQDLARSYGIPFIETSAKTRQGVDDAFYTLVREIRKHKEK
# [1] = tested on: KRas-mediated phosphorylation of ERK in MKN1 cells; assay: Inhibition of KRas-mediated phosphorylation of ERK (Cisbio HTRF pERK), MKN1 cells; type: cell-based; conditions: Homo sapiens, MKN-1
# Procedure, shortened: (§1)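 Seeding density was 6,000 cells/well; medium RPMI, 10% FBS. Read-out by homogeneous time-resolved fluorescence (pERK) after 4 hours covered at room temperature.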
# [2] = tested on: KRas-mediated phosphorylation of ERK in PSN1 cells; assay: Inhibition of KRas-mediated phosphorylation of ERK (Cisbio HTRF pERK), PSN1 cells; type: cell-based; conditions: Homo sapiens
# Procedure, shortened: as §1
# [3] = tested on: KRas-mediated phosphorylation of ERK in AsPC-1 cells; assay: Inhibition of KRas-mediated phosphorylation of ERK (Cisbio HTRF pERK), AsPC-1 cells; type: cell-based; conditions: Homo sapiens, ASPC1, AsPC-1 cells; HTRF pERK
# Procedure, shortened: (§2)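 Following a 3-hr exposure of cells to serially diluted compound (from 10 uM, 3-fold, 10 doses), cold lysis for 40 mins preceded a 2-hr room-temperature HTRF immunoassay for phosphorylated ERK.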
# [4] = tested on: KRas-mediated phosphorylation of ERK in H727 cells; assay: Inhibition of KRas-mediated phosphorylation of ERK (Cisbio HTRF pERK), H727 cells; type: cell-based; conditions: Homo sapiens, NCI-H727, H727 cells; HTRF pERK
# Procedure, shortened: as §2
# [5] = tested on: KRas-mediated phosphorylation of ERK in A549 cells; assay: Inhibition of KRas-mediated phosphorylation of ERK (Cisbio HTRF pERK), A549 cells; type: cell-based; conditions: Homo sapiens, HTRF pERK
# Procedure, shortened: (§3)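 Using 6,000 cells per well, compounds are applied for 3 hrs and cells then lysed at 4° C with shaking for 40 mins. Phospho-ERK is measured by HTRF after 2 hrs of lysate incubation with the d2/Cryptate antibody mixture.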
# [6] = tested on: KRas-mediated phosphorylation of ERK in H460 cells; assay: Inhibition of KRas-mediated phosphorylation of ERK (Cisbio HTRF pERK), H460 cells; type: cell-based; conditions: Homo sapiens, NCI-H460, HTRF pERK
# Procedure, shortened: as §2
# [7] = tested on: KRas-mediated phosphorylation of ERK in HCT116 cells; assay: Inhibition of KRas-mediated phosphorylation of ERK (Cisbio HTRF pERK), HCT116 cells; type: cell-based; conditions: Homo sapiens, HCT-116, HTRF pERK
# Procedure, shortened: as §3
# [8] = tested on: KRas-mediated phosphorylation of ERK in H358 cells; assay: Inhibition of KRas-mediated phosphorylation of ERK (Cisbio HTRF pERK), H358 cells; type: cell-based; conditions: Homo sapiens, NCI-H358, HTRF pERK
# Procedure, shortened: as §2
# T1 sequence (P01116 1-169 isoform P01116-2): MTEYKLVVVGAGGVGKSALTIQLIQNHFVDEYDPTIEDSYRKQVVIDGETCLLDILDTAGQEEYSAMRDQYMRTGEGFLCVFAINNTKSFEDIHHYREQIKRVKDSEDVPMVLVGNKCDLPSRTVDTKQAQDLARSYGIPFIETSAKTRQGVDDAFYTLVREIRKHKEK
Compound,IC50 (KRas^WT),IC50 (KRas^G12A),IC50 (KRas^G12C),IC50 (KRas^G12D),IC50 (KRas^G12R),IC50 (KRas^G12S),IC50 (KRas^G12V),IC50 (KRas^G13D),IC50 (KRas^Q61H),IC50 [1],IC50 [2],IC50 [3],IC50 [4],IC50 [5],IC50 [6],IC50 [7],IC50 [8]
"Cc1cc2[nH]nnc2c(-c2ncc3c(N4CC5C(=O)NC(=O)C5C4)nc(OCC45CCCN4CCC5)nc3c2F)c1C (centres unmarked) [Example 833, 5-(7-(5,6-dimethyl-1H-benzo[d][1,2,3]triazol-4-yl)-8-fluoro-2-((tetrahydro-1H-pyrrolizin-7a(5H)-yl)methoxy)pyrido[4,3-d]pyrimidin-4-yl)tetrahydropyrrolo[3,4-c]pyrrole-1,3(2H,3aH)-dione]",3830 nM,5130 nM,4490 nM,1080 nM,9160 nM,1860 nM,3540 nM,2820 nM,3670 nM,–,–,–,–,–,–,–,–
"O=C1NC(=O)C2CC(c3nc(OCC45CCCN4CCC5)nc4c(F)c(-c5cccc6cccc(F)c56)ncc34)=CC12 (centres unmarked) [Example 525, 5-(8-fluoro-7-(8-fluoronaphthalen-1-yl)-2-((tetrahydro-1H-pyrrolizin-7a(5H)-yl)methoxy)pyrido[4,3-d]pyrimidin-4-yl)-4,6a-dihydrocyclopenta[c]pyrrole-1,3(2H,3aH)-dione]",> 100000 nM,93800 nM,> 100000 nM,50700 nM,45400 nM,> 100000 nM,55900 nM,> 100000 nM,> 100000 nM,–,–,–,–,–,–,–,–
"Cc1cc2[nH]nnc2c(-c2ncc3c(N4C[C@@H]5C[C@H](C4)[C@H](O)C5)nc(OCC45CCCN4CCC5)nc3c2F)c1C [Example 832, (1R,5R,6R)-3-(7-(5,6-dimethyl-1H-benzo[d][1,2,3]triazol-4-yl)-8-fluoro-2-((tetrahydro-1H-pyrrolizin-7a(5H)-yl)methoxy)pyrido[4,3-d]pyrimidin-4-yl)-3-azabicyclo[3.2.1]octan-6-ol]",4590 nM,3770 nM,3200 nM,17100 nM,6410 nM,2940 nM,4550 nM,3880 nM,4610 nM,–,–,–,–,–,–,–,–
"O[C@@H]1C[C@H]2C[C@@H]1CN(c1nc(OC[C@@]34CCCN3C[C@H](F)C4)nc3c(F)c(-c4cccc5ccccc45)ncc13)C2 [Example 724, (1R,5R,6R)-3-(8-fluoro-2-(((2R,7aS)-2-fluorohexahydro-1H-pyrrolizin-7a-yl)methoxy)-7-(naphthalen-1-yl)pyrido[4,3-d]pyrimidin-4-yl)-3-azabicyclo[3.2.1]octan-6-ol]",419 nM,301 nM,185 nM,1590 nM,720 nM,170 nM,404 nM,585 nM,612 nM,–,–,–,–,–,–,–,–
"Cc1cc2[nH]nnc2c(-c2ncc3c(N4CCC[C@@](C)(O)C4)nc(OC[C@@]45CCCN4C[C@H](F)C5)nc3c2F)c1C [Example 821, (3R)-1-(7-(5,6-dimethyl-1H-benzo[d][1,2,3]triazol-4-yl)-8-fluoro-2-(((2R,7aS)-2-fluorotetrahydro-1H-pyrrolizin-7a(5H)-yl)methoxy)pyrido[4,3-d]pyrimidin-4-yl)-3-methylpiperidin-3-ol]",151 nM,137 nM,146 nM,3890 nM,12000 nM,121 nM,5850 nM,146 nM,196 nM,–,–,–,–,–,–,–,–
"Cc1cc2[nH]nnc2c(-c2ncc3c(N4CCCn5nc(C(=O)N(C)C)cc5C4)nc(OCC45CCCN4CCC5)nc3c2F)c1C [Example 839, 5-(7-(5,6-dimethyl-1H-benzo[d][1,2,3]triazol-4-yl)-8-fluoro-2-((tetrahydro-1H-pyrrolizin-7a(5H)-yl)methoxy)pyrido[4,3-d]pyrimidin-4-yl)-N,N-dimethyl-5,6,7,8-tetrahydro-4H-pyrazolo[1,5-a][1,4]diazepine-2-carboxamide]",3780 nM,2380 nM,1630 nM,153 nM,2910 nM,1260 nM,743 nM,4060 nM,3810 nM,–,–,–,–,–,–,–,–
"Cc1cc2[nH]ccc2c(-c2ncc3c(N4CCC[C@@](C)(O)C4)nc(OCC45CCCN4CCC5)nc3c2F)c1C [Example 871, (3R)-1-(7-(5,6-dimethyl-1H-indol-4-yl)-8-fluoro-2-((tetrahydro-1H-pyrrolizin-7a(5H)-yl)methoxy)pyrido[4,3-d]pyrimidin-4-yl)-3-methylpiperidin-3-ol]",3420 nM,3690 nM,3820 nM,2670 nM,8950 nM,4440 nM,4410 nM,2720 nM,4530 nM,–,–,–,–,–,–,–,–
"Cc1cc2[nH]nnc2c(-c2ncc3c(N4CCCC5(CNC(=O)N5)C4)nc(OCC45CCCN4CCC5)nc3c2F)c1C (centres unmarked) [Example 856, 7-(7-(5,6-dimethyl-1H-benzo[d][1,2,3]triazol-4-yl)-8-fluoro-2-((tetrahydro-1H-pyrrolizin-7a(5H)-yl)methoxy)pyrido[4,3-d]pyrimidin-4-yl)-1,3,7-triazaspiro[4.5]decan-2-one]",2820 nM,2230 nM,2060 nM,1190 nM,4270 nM,2510 nM,2200 nM,2470 nM,2830 nM,–,–,–,–,–,–,–,–
"Cc1cc2sncc2c(-c2ncc3c(N4CCC[C@@](C)(O)C4)nc(OCC45CCCN4CCC5)nc3c2F)c1C [Example 820, (3R)-1-(7-(5,6-dimethylbenzo[d]isothiazol-4-yl)-8-fluoro-2-((tetrahydro-1H-pyrrolizin-7a(5H)-yl)methoxy)pyrido[4,3-d]pyrimidin-4-yl)-3-methylpiperidin-3-ol]",1400 nM,634 nM,591 nM,22900 nM,76200 nM,1510 nM,52000 nM,470 nM,2130 nM,–,–,–,–,–,–,–,–
"Cc1cc2[nH]cnc2c(-c2ncc3c(N4CCC[C@@](C)(O)C4)nc(OCC45CCCN4CCC5)nc3c2F)c1C [Example 888, (3R)-1-(7-(5,6-dimethyl-1H-benzo[d]imidazol-4-yl)-8-fluoro-2-((tetrahydro-1H-pyrrolizin-7a(5H)-yl)methoxy)pyrido[4,3-d]pyrimidin-4-yl)-3-methylpiperidin-3-ol]",579 nM,375 nM,199 nM,40700 nM,62300 nM,201 nM,58300 nM,567 nM,539 nM,–,–,–,–,–,–,–,–
"C#Cc1c(F)ccc2cc(O)cc(-c3ncc4c(N5CCC[C@@](C)(O)C5)nc(OC[C@]56CCCN5C/C(=C\F)C6)nc4c3F)c12 [Example 801, (3R)-1-(7-(8-ethynyl-7-fluoro-3-hydroxynaphthalen-1-yl)-8-fluoro-2-(((Z)-2-(fluoromethylene)tetrahydro-1H-pyrrolizin-7a(5H)-yl)methoxy)pyrido[4,3-d]pyrimidin-4-yl)-3-methylpiperidin-3-ol]",< 2 nM,–,< 2 nM,< 2 nM,–,< 2 nM,< 2 nM,–,–,0.1 nM,117 nM,3 nM,12 nM,7 nM,4 nM,15 nM,1 nM
"CCc1c(F)ccc2cc(O)cc(-c3ncc4c(N5CCC[C@@](C)(O)C5)nc(OC[C@]56CCCN5CC(=C(F)F)C6)nc4c3F)c12 (single isomer, unassigned) [Example 919]",< 2 nM,–,< 2 nM,< 2 nM,–,< 2 nM,< 2 nM,–,–,3 nM,2480 nM,14 nM,43 nM,19 nM,10 nM,37 nM,14 nM
